These results are taken from US11529311B2, “Method of using nebulized alcohol for analgesia” (BN Intellectual Properties, Inc., priority 2021, dated 2022).

The procedure of data set [1]:
Example 3: A third patient experienced acute pain from a chronic back injury which occurred during a car accident approximately 40 years earlier. The patient experienced acute pain for about 8 hours, requiring assistance to lower themself to sit in a chair, to stand up from the chair, and to walk about.

How the values of data set [2] were obtained:
Example 1: A first patient treatment example is that of an adult experiencing pain from multiple neck injuries and replaced vertebrae who was treating pain using 60 mg Oxycontin® (30 mg in morning and night) and 6 doses of Percocet® daily as needed before ethanol treatment. The patient's opioid usage history spanned 11 years. The first patient also took Ambien® at night to promote sleep.
The first patient takes nebulized alcohol in the morning and at bedtime (about 3-4 inhalations each time), wakes in the night to use the bathroom, and occasionally takes nebulized alcohol during the night.
The source holds these as a separate data set.

For data set [3] the following is noted: adult, 1-2 inhalations. From the text:
Example 2: A second patient treatment is of an adult experiencing sinus headaches using nebulized ethanol solution.

This is another data set of the same source.
Setting [4] is: over the course of ethanol treatment.
The mark [5] stands for this setting: patient report, result of reduced Oxycontin doses.
The mark [6] stands for this setting: patient report, nebulized alcohol morning and bedtime.

With Ethyl alcohol [nebulized ethanol], the “pain relief after repeated treatment” value in data set [1] (4 inhalations per treatment) was “complete relief”. Also, in data set [1] (5 inhalations per treatment), the “pain relief after initial session” value is on record as “complete pain relief” and the “time until pain recurred after the initial session” value is listed as “approximately 12 hours”. Moreover, in data set [1] (in vivo), the “time to complete remission of pain” value amounted to 48 h and the “time to remission relative to time with other analgesics prior to ethanol therapy” value is “approximately 50%”. In addition, the “reported levels of pain” value in data set [2] (adult male, 11 years of opioid use, over the course of ethanol treatment, about 3-4 inhalations morning and bedtime) is given as “significantly lower”. Also, the Oxycontin usage in data set [2] (after 6 months of ethanol therapy, 60 mg daily before treatment) is listed as 10 mg/day. In addition, the Percocet usage entry in data set [2] (after 6 months of ethanol therapy, 6 doses daily as needed before treatment) is reported as “no Percocet® during the day”. In data set [2] (setting [4]), the opioid usage result is “reduced”; the “physical stamina, physical performance (kidney and bowel function), and mental acuity” value was “improved”. Also, in data set [2] (setting [5]), the “alertness, attention, and mental acuity” value is listed as “increased”; the bowel function entry is listed as “increased bowel function”; the mobility entry is on record as “greater mobility (able to resume dance activities)”; the posture entry is “improved posture (able to hold head in a vertical position)”. Besides, the renal function result in data set [2] (setting [5]) was “increased renal function (no more water retention/bloating)”. Also, in data set [2] (setting [6]), the quality of sleep result is reported as “increased”; the “usage of sleep aids to counteract discomfort and pain from injuries” value is given as “reduced”. Besides, in data set [3], the “rate of achieving pain relief compared with other treatments (sinus rinse, other pain medications)” value was “significantly faster”. Moreover, the “duration of brain effects (euphoria, and so forth)” value (persons in the absence of significant pain) is recorded as “about 2 hours”. The “reported feeling (side effects)” value (persons who take nebulized alcohol for pain) is reported as “moderate sleepiness or drowsiness, but not “buzzed” or “intoxicated””.
